The record followed here is paper PMC12736535, “Generation and Characterization of Novel Contilisant+Tubastatin a Multitarget Small Molecules Against Glioblastoma” (Pharmaceutics, 2025).

The test system of one data set is U87 glioblastoma cells. Put plainly: MTT cell viability, U87. Type of data set: cell-based. The settings on record: Homo sapiens, 72 h, read-out: IC50 U87 (GBM). As to the method: (§1) U87-MG, U251-MG and NCI-H1299 cells were purchased from ATCC, while MKN45 was obtained from the Leibniz Institute DSMZ-German Collection of Microorganisms and Cell Cultures and the RWP1 cell line was kindly provided by Dr. Francisco Real. Cells were cultured in DMEM or RPMI (Gibco, Waltham, MA, USA) supplemented with 10% FBS, 100 U/mL penicillin and streptomycin and 2 mM L-Glutamine. Patient-derived glioma neural stem cells (GNS166 and GNS179) were kindly provided by Dr. Steve Pollard. These cells were cultured in adhesion plates treated with laminin A in DMEM/F12 media (Gibco) supplemented with N2 (Gibco), B27 (Gibco), D-(+)-Glucose solution 45% (Sigma-Aldrich, Burlington, MA, USA), basic Fibroblast Growth Factor (Gibco) and epidermal growth factor (Sigma-Aldrich). Normal human astrocytes (NHAs) were purchased from ScienCell and cultured using an astrocyte medium kit (ScienCell, San Diego, CA, USA) supplemented with FBS and Astrocyte Growth Supplement (AGS). All cells were maintained at standard conditions of 37 °C, 95% humidity, 21% O2 and 5% CO2, and cultures were regularly tested for Mycoplasma.
(§2) Cells were seeded in 96-well plates at a density of 1.5 × 10^3 or 5 × 10^3 cells/well (conventional cell lines or GNS and NHAs, respectively) and incubated overnight. Next, cells were treated with increasing concentrations of the compounds, and after 72 h, they were incubated for 3.5 h with MTT. Then, absorbance at 570 nm was measured. GraphPad Prism software version 10.4.1 was used to calculate the IC50 values.

The next data set concerns H1299 lung cancer cells. Briefly: MTT cell viability, H1299. Format: cell-based, human. As to the method: as §1, §2
In another data set the target is T1, recombinant hMAO-B (Homo sapiens, UniProt P27338).
T1 sequence (P27338 1-520): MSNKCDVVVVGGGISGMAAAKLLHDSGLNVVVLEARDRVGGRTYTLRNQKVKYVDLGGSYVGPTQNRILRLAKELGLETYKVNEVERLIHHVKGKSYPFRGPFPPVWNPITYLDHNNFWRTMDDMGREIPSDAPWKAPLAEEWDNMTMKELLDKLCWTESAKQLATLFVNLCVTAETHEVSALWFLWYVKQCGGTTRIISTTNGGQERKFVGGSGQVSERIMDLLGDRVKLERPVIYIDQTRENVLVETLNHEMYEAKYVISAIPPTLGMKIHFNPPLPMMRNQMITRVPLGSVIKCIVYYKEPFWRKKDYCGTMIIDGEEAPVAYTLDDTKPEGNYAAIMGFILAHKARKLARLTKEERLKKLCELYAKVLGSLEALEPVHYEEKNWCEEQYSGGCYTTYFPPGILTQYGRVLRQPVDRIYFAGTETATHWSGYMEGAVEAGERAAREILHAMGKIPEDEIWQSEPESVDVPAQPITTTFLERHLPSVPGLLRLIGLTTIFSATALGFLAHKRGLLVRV
Briefly: MAO-B inhibition assay. Type of data set: biochemical. The settings on record: for MAO inhibition MAO-B % / inhibition at 10 µM: 10 μM. As to the method: […] Next, horseradish peroxidase (200 U/mL), Ampliflu Red (20 mM) and tyramine hydrochloride (100 mM) (Sigma-Aldrich) were added, and absorbance was measured at 570 nm every 5 min for 30 min. The percentage of inhibition was calculated from the absorbance values.

For a further data set, the target named is AChE (Homo sapiens, UniProt P22303). Briefly: AChE inhibition, Ellman's colorimetric method. Format: biochemical. The settings on record: read-out: ChE inhibition AChE %. The protocol: (§3) The inhibitory capacity of the compounds on ChEs was assessed using Ellman’s colorimetric method. Briefly, an inhibitor solution containing 10 µM of the MSMs and 0.3 mM DTNB was incubated for 20 min with the enzyme solution ([…]) at 37 °C. […] Inhibition percentages were calculated from these values. […] Further, enzyme kinetics were studied using different substrate and inhibitor concentrations. Results were represented in a Lineweaver–Burk plot using GraphPad Prism, and the constant of inhibition (Ki) was estimated from the point at which the line cuts the x-axis in the secondary plot.
Chain of AChE (P22303 32-614): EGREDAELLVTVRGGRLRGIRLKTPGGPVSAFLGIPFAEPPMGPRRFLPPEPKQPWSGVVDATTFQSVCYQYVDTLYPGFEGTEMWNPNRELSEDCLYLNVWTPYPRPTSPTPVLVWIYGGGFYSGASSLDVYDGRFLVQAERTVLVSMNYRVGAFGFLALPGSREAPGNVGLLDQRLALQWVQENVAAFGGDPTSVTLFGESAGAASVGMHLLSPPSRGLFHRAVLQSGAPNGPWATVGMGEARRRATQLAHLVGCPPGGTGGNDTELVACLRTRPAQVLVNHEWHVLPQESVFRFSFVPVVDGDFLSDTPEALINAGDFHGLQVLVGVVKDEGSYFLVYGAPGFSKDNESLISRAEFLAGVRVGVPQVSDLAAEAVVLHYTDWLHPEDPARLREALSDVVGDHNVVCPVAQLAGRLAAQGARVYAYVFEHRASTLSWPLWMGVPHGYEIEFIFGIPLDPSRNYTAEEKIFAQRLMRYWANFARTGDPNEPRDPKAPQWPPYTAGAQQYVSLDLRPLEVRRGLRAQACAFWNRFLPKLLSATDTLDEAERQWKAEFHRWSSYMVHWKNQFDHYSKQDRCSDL
For orientation: In Ellman's method for cholinesterases, released thiocholine reacts with DTNB.

The target in data set [1] is T2, BChE (Homo sapiens, UniProt P06276). Briefly: BChE inhibition, Ellman's colorimetric method. Format: biochemical. Particulars: for inhibition at 10 µM: read-out: ChE inhibition BChE %. The protocol: as §3
T2 sequence (P06276 29-602, species assumed): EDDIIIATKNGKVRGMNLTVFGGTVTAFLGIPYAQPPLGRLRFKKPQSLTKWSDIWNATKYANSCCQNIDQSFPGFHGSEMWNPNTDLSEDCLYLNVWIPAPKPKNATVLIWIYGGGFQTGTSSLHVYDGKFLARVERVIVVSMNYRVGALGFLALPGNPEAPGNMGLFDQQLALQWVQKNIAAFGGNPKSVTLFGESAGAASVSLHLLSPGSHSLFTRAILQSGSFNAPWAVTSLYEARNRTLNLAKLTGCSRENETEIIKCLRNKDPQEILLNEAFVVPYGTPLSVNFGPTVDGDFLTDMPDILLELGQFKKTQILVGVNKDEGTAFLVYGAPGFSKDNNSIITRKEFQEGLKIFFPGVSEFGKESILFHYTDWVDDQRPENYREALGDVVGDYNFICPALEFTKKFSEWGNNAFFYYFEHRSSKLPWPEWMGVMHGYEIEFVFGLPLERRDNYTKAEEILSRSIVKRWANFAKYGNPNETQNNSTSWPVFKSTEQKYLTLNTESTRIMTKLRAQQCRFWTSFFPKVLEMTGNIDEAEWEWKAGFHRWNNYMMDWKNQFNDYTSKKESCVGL
Another data set has as its system GNS166 cells. Put plainly: RNA-seq. Format: cell-based, human. The settings on record: 5 µM. The source says:
For transcriptomic analysis, total RNA was extracted and samples were sent to BGI Tech Solutions. […] Genes presenting a fold-change value ≥4 or ≤−4 and an FDR-adjusted p-value < 0.01 were defined as differentially expressed and used to perform downstream enrichment studies.

Data set [2] in a line: In vivo toxicity, body weight. Set-up: species or system athymic nude-Foxn1nu mice. The settings on record: intraperitoneal, 3 days per week.
The test system of another data set is U87 subcutaneous tumors. Briefly: Subcutaneous U87 tumor growth and tumor immunohistochemistry. Particulars: 50 mg/kg i.p.; for final tumor volume: 3 days per week for 4 weeks, control ~750; for decrease in the number of Ki67-positive cells (IHC): resected tumors. Format: in vivo, athymic nude-Foxn1nu mice. The protocol: For carcinogenesis studies, subcutaneous tumor growth experiments were performed via the injection of 5 × 10^5 cells into two bottom flanks of athymic nude-Foxn1^nu mice. Once tumors reached a size of 25–50 mm^3, mice were sorted into different treatment groups based on their gender and tumor size. An external caliper was used for tumor size measurement, and the tumor volume was estimated using the formula V = L·W^2·0.5 (where L is tumor length and W is tumor width). […] Sample size was calculated, taking into account that control groups could have an average size of 700 mm^3 and we wanted to detect a difference of […]. For the cytotoxic experiment, 8 controls and 8 treated animals were used, while for the efficacy experiment 12 control animals and 8 treated animals were used.
Subcutaneous tumors were extracted, fixed with 4% formaldehyde for 48 h and embedded in paraffin. Tumor sections were obtained and stainings for Ki67 (Ab16667, Abcam), acetyl H3 (9649, Cell Signaling) and acetylated α-tubulin (ab179484, Abcam) were performed. A ZEISS Axioscan 7 slide scanner was used to capture images of the stainings, and analyses were performed using Qupath.

Data set [3] concerns the target T2, BChE. Put plainly: BChE inhibition, Ellman's colorimetric method. Type of data set: biochemical. Particulars: 1 μM; read-out: ChE inhibition BChE %.
Setting [4] is: increasing concentrations of inhibitor.

Read-outs that look alike come from different tables or passages of the source. Where only a bound is given, the exact number is not on record here.

On to `CCCNNC(=O)c1ccc(S(=O)(=O)n2ccc3cc(OCCCN4CCCCC4)ccc32)cc1` [FRB44], for which the IC50 is ~1.5 µM with U87 glioblastoma cells; 11 µM in the data set with H1299 lung cancer cells (Homo sapiens, NCI-H1299, 72 h); 3.16 µM at recombinant hMAO-B (setting [4]); 8.24 µM on BChE [1] (setting [4]). Besides, the inhibition at 1 µM at recombinant hMAO-B amounted to 18%; on BChE [3] it was 20%. At recombinant hMAO-B, the “MAO inhibition MAO-B %” value worked out at 70%. Besides, the figures for the inhibition at 10 µM on recombinant hMAO-B, at AChE and at BChE [1] (10 μM) were 69%, 24% and 71%, respectively. Besides, the Type of inhibition entry is listed as “Mixed” at BChE [1] and “mixed inhibition” at BChE [1] (BChE, Lineweaver-Burk plot). On BChE [1] (10 μM), the “ChE inhibition BChE %” value is recorded as 70%. Besides, the Ki at BChE [1] (BChE, secondary plot of Lineweaver-Burk slopes) worked out at 1.36 µM. The “FC of CDKN1A (RNA-seq)” value in the data set on GNS166 cells is reported as 3.53 fold. Besides, the “FC of MKI67 (RNA-seq)” value in the data set with GNS166 cells is listed as 0.09 fold. For the same compound, the “body weight vs control animals” value in data set [2] is on record as “no statistically significant differences”. Moreover, the “final tumor weight, lower compared to controls” value in the data set on U87 subcutaneous tumors amounted to 62.5%. Further, the final tumor volume in the data set with U87 subcutaneous tumors is listed as ~ 325 mm^3. For the same compound, in the data set with U87 subcutaneous tumors, the “decrease in the number of Ki67-positive cells (IHC)” value is listed as “around 30%”.
In the case of `C#CCN1CCN(CCCOc2ccc3c(ccn3S(=O)(=O)c3ccc(C(=O)NNCCC)cc3)c2)CC1` [FRB56], the IC50 with U87 glioblastoma cells is ~1.5 µM; in the data set with H1299 lung cancer cells (72 h), < 5 µM; in the data set on H1299 lung cancer cells (Homo sapiens, NCI-H1299, 72 h) it was 4.9 µM. Also, the inhibition at 1 µM at recombinant hMAO-B was 83%; at BChE [3], 10%. Moreover, the “MAO inhibition MAO-B %” value on recombinant hMAO-B is given as 90%. The inhibition at 10 µM on recombinant hMAO-B amounted to 89%; on AChE it was 13%; at BChE [1] (10 μM), 15%. Also, in the data set on GNS166 cells, the “FC of CDKN1A (RNA-seq)” value stood at 3.12 fold. Also, in the data set on GNS166 cells, the “FC of MKI67 (RNA-seq)” value was 0.06 fold. For the same compound, the “body weight vs control animals” value in data set [2] is listed as “no statistically significant differences”. Also, the “final tumor weight, lower compared to controls” value in the data set on U87 subcutaneous tumors amounted to 61.4%. Besides, the final tumor volume with U87 subcutaneous tumors is listed as ~ 280 mm^3. Besides, the “decrease in the number of Ki67-positive cells (IHC)” value in the data set with U87 subcutaneous tumors is listed as “around 30%”.

In general, IC50 refers to the midpoint of a concentration-inhibition curve. As a reminder, the inhibition is the share of the control response that was lost under treatment. The term Ki denotes a measure of affinity in units of concentration, obtained from inhibition or displacement.
